Measurements as given in paper PMC6844378, “Structure activity relationship studies on Amb639752: toward the identification of a common pharmacophoric structure for DGKα inhibitors” (Journal of Enzyme Inhibition and Medicinal Chemistry, 2019).

Columns and labels:
DGKα = DGKα (Homo sapiens, UniProt P23743); test: Isoform specificity, DGKα homogenates of transfected 293T cells; format: biochemical; conditions: 100 µM; 293T homogenates
Description: (§1) 293T cells were transiently transfected with indicated DGK isoform plasmid DNA using Lipofectamine 3000, Invitrogen (Carlsbad, CA). Forty eight hours after transfection, cells were harvested and homogenised with a 29 G-needle using 500 µL of homogenate buffer for each dish and immediately stored in aliquots at –80 °C. Cells transfected with empty vector were used as controls, overexpressed DGK has an activity >50 folds the endogenous.
(§2) Essentionally, the same procedure was followed as reported previously in Velnati et al.[9] In brief, DGK activity was assayed by measuring initial velocities (5 min at 27 °C) in presence of saturating substrate concentrations. Reaction conditions: 0.9 µg/µL 1,2-dioleoyl-sn-glycerol, 5 mM ATP, 0.01 µCi/µL [γ^32P]-ATP, 1 mM sodium orthovanadate, 10 mM MgCl2, 1.2 mM EGTA in 7.5 mM Hepes pH 8[12]. Reaction mixture is assembled mixing enzyme (24.5 µL of homogenate), 100× inhibitor or DMSO (0.5 µL), 5× ATP solution (10 µL of 25 mM ATP, 0.05 µCi/µL [γ^32P]-ATP (Perkin-Elmer, Milan, Italy), 5 mM sodium orthovanadate, 50 mM MgCl2), and 3.3× DAG solution (15 µL of 3 µg/µL 1,2-dioleoyl-sn-glycerol resuspended by sonication in 4 mM EGTA in 25 mM Hepes pH 8). […] TLC was run 10 cm and dried before radioactive signals were detected by GS-250 molecular imager and was quantified by quantity one (Bio-Rad, Hercules, CA) software assuring the absence of saturated spots. […]

DGKζ = target: T1, DGKζ (Homo sapiens, UniProt Q13574); test: Isoform specificity, DGKζ homogenates of transfected 293T cells; format: biochemical; conditions: 100 µM; 293T homogenates
T1 construct: expressed in transfected cells; host or cells: 293T cells, transient transfection (Lipofectamine 3000), crude homogenate
T1 sequence (Q13574 whole entry, species assumed, canonical isoform): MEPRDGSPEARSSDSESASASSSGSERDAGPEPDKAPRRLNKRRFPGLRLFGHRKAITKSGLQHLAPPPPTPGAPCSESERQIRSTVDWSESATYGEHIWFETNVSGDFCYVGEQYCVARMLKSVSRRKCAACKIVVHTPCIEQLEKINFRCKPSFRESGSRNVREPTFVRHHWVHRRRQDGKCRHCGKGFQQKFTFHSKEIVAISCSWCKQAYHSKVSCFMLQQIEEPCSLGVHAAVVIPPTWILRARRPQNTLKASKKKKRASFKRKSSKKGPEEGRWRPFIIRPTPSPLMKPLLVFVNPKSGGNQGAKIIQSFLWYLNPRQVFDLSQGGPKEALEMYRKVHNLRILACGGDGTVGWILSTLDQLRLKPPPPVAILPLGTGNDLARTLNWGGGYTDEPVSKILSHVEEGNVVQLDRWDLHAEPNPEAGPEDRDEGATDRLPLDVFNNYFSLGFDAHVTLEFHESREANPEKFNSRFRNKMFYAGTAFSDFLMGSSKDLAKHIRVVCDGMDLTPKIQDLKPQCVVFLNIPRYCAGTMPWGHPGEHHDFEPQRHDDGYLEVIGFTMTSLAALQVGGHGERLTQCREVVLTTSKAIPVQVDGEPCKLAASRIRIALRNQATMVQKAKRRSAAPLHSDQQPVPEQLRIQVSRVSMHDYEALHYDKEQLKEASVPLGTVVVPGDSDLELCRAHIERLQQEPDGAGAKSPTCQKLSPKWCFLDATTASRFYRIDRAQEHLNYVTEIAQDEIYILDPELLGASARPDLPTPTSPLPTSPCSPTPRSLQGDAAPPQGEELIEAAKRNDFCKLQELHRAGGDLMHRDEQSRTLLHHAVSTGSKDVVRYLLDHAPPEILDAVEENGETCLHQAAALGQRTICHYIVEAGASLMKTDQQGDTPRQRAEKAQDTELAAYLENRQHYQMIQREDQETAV
Description: as §1, §2

serotonin receptors = test: Superoxide anion production: serotonin effect on PMA-induced oxidative burst in monocytes; format: cell-based; conditions: drugs 10 µM, 1 h; serotonin 1 µM; PMA 1 µM 30 min; human monocytes
Description: Human monocytes were isolated from healthy anonymous human buffy coats (provided by the Transfusion Service of Ospedale Maggiore della Carità, Novara, Italy) by the standard technique of dextran sedimentation and Histopaque (density = 1.077 g cm^3, Sigma-Aldrich, Milano, Italy) gradient centrifugation (400×g, 30 min, room temperature) and recovered by fine suction at the interface, as described previously. Purified monocytes populations were obtained by adhesion (90 min, 37 °C, 5% CO2) in serum-free RPMI 1640 medium (Sigma-Aldrich, Milano, Italy) supplemented with 2 mM glutamine and antibiotics. Cell viability (trypan blue dye exclusion) was usually >98%.
All the experiments were performed in triplicate using cells isolated from each single donor.
Monocytes (250,000 cells/well) were treated for 1 h with the indicated drugs (10 µM) with or without serotonin (1 µM). Then, cells were stimulated with phorbol 12-myristate 13-acetate (PMA; Sigma-Aldrich, Milano, Italy) 1 µM for 30 min. PMA is a well-known stimulus that induces a strong and significant respiratory burst via PKC activation. Superoxide anion production was then evaluated by the superoxide dismutase (SOD)-sensitive cytochrome C (CytC) reduction assay and expressed as nmoles CytC reduced/10^6 cells/30 min, using an extinction coefficient of 21.1 mM. To avoid interference with spectrophotometrical recordings, cells were incubated with RPMI 1640 without phenol red, antibiotics, and FBS.
To this purpose, we measured the effect of serotonin on PMA-induced oxidative burst in human monocytes. As previously shown, 1 µM serotonin reverses the oxidative burst to control values.
Figure 8. […] Results are expressed as n moles of reduced cytochrome C/10^6 cells. Data are means ± SEM of 10 independent experiments performed in triplicate.

Sequence of DGKα (P23743 whole entry, canonical isoform): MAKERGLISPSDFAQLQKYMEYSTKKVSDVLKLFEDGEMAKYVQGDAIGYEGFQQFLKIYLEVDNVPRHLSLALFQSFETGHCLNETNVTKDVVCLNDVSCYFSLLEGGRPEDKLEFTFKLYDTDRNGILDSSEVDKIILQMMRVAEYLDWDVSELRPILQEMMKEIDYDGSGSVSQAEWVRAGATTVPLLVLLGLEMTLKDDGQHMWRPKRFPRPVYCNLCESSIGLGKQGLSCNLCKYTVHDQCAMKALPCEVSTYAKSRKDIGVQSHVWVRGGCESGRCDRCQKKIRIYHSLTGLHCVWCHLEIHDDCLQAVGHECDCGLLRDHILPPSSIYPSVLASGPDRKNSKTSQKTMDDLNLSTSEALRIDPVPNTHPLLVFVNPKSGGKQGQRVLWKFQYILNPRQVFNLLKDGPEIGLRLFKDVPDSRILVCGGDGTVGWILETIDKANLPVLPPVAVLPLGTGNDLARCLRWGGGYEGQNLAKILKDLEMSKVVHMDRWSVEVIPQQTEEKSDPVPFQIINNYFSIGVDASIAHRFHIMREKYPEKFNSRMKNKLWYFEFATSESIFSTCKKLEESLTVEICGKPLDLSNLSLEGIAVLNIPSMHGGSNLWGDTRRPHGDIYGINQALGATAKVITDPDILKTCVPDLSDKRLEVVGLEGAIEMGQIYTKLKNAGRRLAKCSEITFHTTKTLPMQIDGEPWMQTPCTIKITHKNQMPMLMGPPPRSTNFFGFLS

Cc1ccc2c(C(=O)CN3CCN(C(=O)c4ccco4)CC3)c(C)[nH]c2c1 [Amb639752]
inhibition of DGKα activity (DGKα): completely inhibit | effect on DGKζ activity (DGKζ): do not have significant effects | effect on serotonin action on PMA-induced oxidative burst (serotonin receptors): had no effect
